One experiment addresses T1, BRPF1B (Homo sapiens, UniProt P55201).
T1 construct: purchased DiscoveRx (BROMOscan platform); host or cells: E. coli host derived from BL21 (T7 phage)
T1 sequence (P55201 628-732 limits assumed): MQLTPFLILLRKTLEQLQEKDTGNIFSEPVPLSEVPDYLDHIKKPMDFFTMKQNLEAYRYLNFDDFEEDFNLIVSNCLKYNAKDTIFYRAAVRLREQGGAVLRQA
In words: BROMOscan bromodomain competitive binding assay (DiscoveRx), BRPF1B. The following applies: BROMOscan platform, n = 2 unless cell says n = 4. Here is the method:
(§1) Compounds were tested using the commercially available BROMOscan™ Platform (DiscoveRx): http://www.discoverx.com/technologies-platforms/competitive-binding-technology/bromoscan-technology-platform/bromoscan-assay-process.
(§2) Bromodomain assays. T7 phage strains displaying bromodomains were grown in parallel in 24-well blocks in an E. coli host derived from the BL21 strain. E. coli were grown to log-phase and infected with T7 phage from a frozen stock (multiplicity of infection=0.4) and incubated with shaking at 32° C. until lysis (90-150 minutes). The lysates were centrifuged (5,000×g) and filtered (0.2 μm) to remove cell debris. […] The liganded beads were blocked with excess biotin and washed with blocking buffer (SeaBlock (Pierce), 1% BSA, 0.05% Tween 20, 1 mM DTT) to remove unbound ligand and to reduce non-specific phage binding. […] Test compounds were prepared as 1000× stocks in 100% DMSO and subsequently diluted 1:10 in monoethylene glycol (MEG) to create stocks at 100× the screening concentration (resulting stock solution is 10% DMSO/90% MEG). The compounds were then diluted directly into the assays such that the final concentration of DMSO and MEG were 0.1% and 0.9%, respectively. All reactions were performed in polystyrene 96-well plates in a final volume of 0.135 ml. […] The bromodomain concentration in the eluates was measured by qPCR.
(§3) An 11-point 3-fold serial dilution of each test compound was prepared in 100% DMSO at 1000× final test concentration. This serial is then diluted to 100× in ethylene glycol and subsequently diluted to 1× in the assay (final DMSO concentration=0.1%, Ethylene glycol concentration=0.9%). Most Kds were determined using a compound top concentration=10,000 nM.
(§4) Binding constants (Kds) were calculated with a standard dose-response curve using the Hill equation: […]
(§5) The Hill Slope was set to −1. Curves were fitted using a non-linear least square fit with the Levenberg-Marquardt algorithm.
(§6) BROMOscan™ uses the same assay technology as KINOMEscan™. For a more detailed description of this assay technology, see Fabian et al.12

A further experiment has as its target T2, BRD1 (Homo sapiens, UniProt O95696).
T2 construct: purchased DiscoveRx (BROMOscan platform); host or cells: E. coli host derived from BL21 (T7 phage)
T2 sequence (O95696 562-666 limits assumed): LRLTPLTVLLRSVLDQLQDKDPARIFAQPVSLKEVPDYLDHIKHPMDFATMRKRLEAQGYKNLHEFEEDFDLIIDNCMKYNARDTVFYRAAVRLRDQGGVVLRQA
As to the kind of experiment: BROMOscan bromodomain competitive binding assay (DiscoveRx), BRD1. Conditions: BROMOscan platform, n = 2. As to the method:
as §1, §2, §3, §4, §5, §6

For another experiment, the target named is T3, BRPF3 (Homo sapiens, UniProt Q9ULD4).
T3 construct: purchased DiscoveRx (BROMOscan platform); host or cells: E. coli host derived from BL21 (T7 phage)
T3 sequence (Q9ULD4 589-693 limits assumed): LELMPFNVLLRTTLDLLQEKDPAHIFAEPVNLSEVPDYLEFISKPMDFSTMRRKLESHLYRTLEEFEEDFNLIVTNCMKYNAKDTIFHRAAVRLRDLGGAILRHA
In words: BROMOscan bromodomain competitive binding assay (DiscoveRx), BRPF3. The following applies: BROMOscan platform, n = 2. Here is the method:
as §1, §2, §3, §4, §5, §6

In a further experiment the target is T4, BRD9 (Homo sapiens, UniProt Q9H8M2).
T4 construct: purchased DiscoveRx (BROMOscan platform); host or cells: E. coli host derived from BL21 (T7 phage)
T4 sequence (Q9H8M2 136-240 limits assumed): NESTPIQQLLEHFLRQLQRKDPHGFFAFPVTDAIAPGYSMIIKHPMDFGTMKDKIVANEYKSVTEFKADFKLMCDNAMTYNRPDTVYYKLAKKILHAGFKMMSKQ
As to the kind of experiment: BROMOscan bromodomain competitive binding assay (DiscoveRx), BRD9. Conditions: BROMOscan platform, n = 2. Here is the method:
as §1, §2, §3, §4, §5, §6

In another experiment the target is T5, BRD7 (Homo sapiens, UniProt Q9NPI1).
T5 construct: purchased DiscoveRx (BROMOscan platform); host or cells: E. coli host derived from BL21 (T7 phage)
T5 sequence (Q9NPI1 131-235 limits assumed): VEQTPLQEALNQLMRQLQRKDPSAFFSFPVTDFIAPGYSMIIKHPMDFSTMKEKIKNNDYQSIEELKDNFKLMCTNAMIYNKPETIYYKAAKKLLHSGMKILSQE
As to the kind of experiment: BROMOscan bromodomain competitive binding assay (DiscoveRx), BRD7. The following applies: BROMOscan platform, n = 2. As to the method: as §1
Bromodomain assays. T7 phage strains displaying bromodomains were grown in parallel in 24-well blocks in an E. coli host derived from the BL21 strain. E. coli were grown to log-phase and infected with T7 phage from a frozen stock (multiplicity of infection=0.4) and incubated with shaking at 32° C. until lysis (90-150 minutes). The lysates were centrifuged (5,000×g) and filtered (0.2 μm) to remove cell debris. […] The liganded beads were blocked with excess biotin and washed with blocking buffer (SeaBlock (Pierce), 1% BSA, 0.05% Tween 20, 1 mM DTT) to remove unbound ligand and to reduce non-specific phage binding. […] The bromodomain concentration in the eluates was measured by qPCR.
An 11-point 3-fold serial dilution of each test compound was prepared in 100% DMSO at 1000× final test concentration. […] Most Kds were determined using a compound top concentration=10,000 nM.
as §4

Consider `Cn1c(=O)ccc2cc(NS(=O)(=O)c3ccc(C#N)cc3)ccc21` [Compound 4, 4-cyano-N-(1-methyl-2-oxo-1,2-dihydroquinolin-6-yl)benzenesulfonamide], for which the Kd on BRPF1B was determined as 43 nM; on BRD1 it was 200 nM; at BRPF3, 1000 nM; on BRD9, 910 nM.

In the case of `COc1cc2c(ccc(=O)n2C)cc1NS(=O)(=O)c1ccc(C#N)cc1` [Compound 11, 4-cyano-N-(7-methoxy-1-methyl-2-oxo-1,2-dihydroquinolin-6-yl)benzenesulfonamide], the Kd on BRPF1B turned out to be 53 nM; on BRD1, 520 nM; at BRPF3 it was 2200 nM; on BRD9, 2700 nM.

As to `Cc1cc2cc(NS(=O)(=O)c3ccc(C#N)cc3)ccc2n(C)c1=O` [Compound 19, 4-cyano-N-(1,3-dimethyl-2-oxo-1,2-dihydroquinolin-6-yl)benzenesulfonamide], the Kd at BRPF1B came out at 7.9 nM; at BRD1, 48 nM; on BRPF3 it was 260 nM; on BRD9 it was 310 nM; on BRD7, 82 nM.

Regarding `COc1cc2c(cc1NS(=O)(=O)c1ccc(C#N)cc1OC)cc(C)c(=O)n2C` [Compound 27, 4-cyano-2-methoxy-N-(7-methoxy-1,3-dimethyl-2-oxo-1,2-dihydroquinolin-6-yl)benzenesulfonamide], the Kd came to 12 nM at BRPF1B, 80 nM on BRD1, 190 nM at BRPF3 and 170 nM on BRD9.

Turning to `COc1cc2c(cc1NS(=O)(=O)c1ccc(C#N)cc1)c(C)cc(=O)n2C` [Compound 33, 4-cyano-N-(7-methoxy-1,4-dimethyl-2-oxo-1,2-dihydroquinolin-6-yl)benzenesulfonamide], the Kd on BRPF1B was determined as 60 nM; at BRD1, 1800 nM; on BRPF3 it was 9300 nM; on BRD9, 890 nM; at BRD7 it was 21000 nM.

What is called Kd is the equilibrium constant for the complex coming apart. High values mean a looser complex, low ones a tighter complex.

The values are drawn from US20170291875A1, “QUINOLONES AS INHIBITORS OF CLASS IV BROMODOMAIN PROTEINS” (UCL BUSINESS PLC, priority 2014, published 2017).
